The values that follow come from ChEMBL document CHEMBL1150345 (J Med Chem, 2008).

The structures appear in SMILES notation. pKi: −log10 of the molar value.

In one assay the target is T1, Histamine H4 receptor (Homo sapiens, UniProt Q9H3N8). Nature of the assay: biochemical. The assay is classed as cell-based, SK-N-MC.
T1 sequence (Q9H3N8 whole entry): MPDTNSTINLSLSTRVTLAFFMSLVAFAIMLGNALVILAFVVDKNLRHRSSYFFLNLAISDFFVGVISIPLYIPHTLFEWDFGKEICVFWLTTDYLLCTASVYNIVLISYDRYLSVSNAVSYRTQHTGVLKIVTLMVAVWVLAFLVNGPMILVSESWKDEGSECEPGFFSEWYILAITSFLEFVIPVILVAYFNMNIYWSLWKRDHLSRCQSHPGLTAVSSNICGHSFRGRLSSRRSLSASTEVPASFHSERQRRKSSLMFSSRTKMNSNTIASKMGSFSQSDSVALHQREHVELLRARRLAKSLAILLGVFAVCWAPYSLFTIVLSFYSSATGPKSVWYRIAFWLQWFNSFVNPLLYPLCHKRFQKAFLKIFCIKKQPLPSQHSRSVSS
Conditions: not given
The term pKi denotes −log10 of the Ki, conventionally taken in molar units. As to `C[C@@H](N)Cc1c[nH]cn1`, the pKi was 6.74.
For `CCOC(=O)c1ccc(NC2=CC(=O)/C(=N\NC(=N)N)c3ccccc32)cc1`, the pKi is 6.66.
Same read-out and setting: next, `Cc1cc(C)nc(N=C(N)NCCc2cnc[nH]2)n1`: 7.07; `CN(C)CCCSC(=N)N`: 7.05; `NC(=NCCc1ccc(I)cc1)SCCCc1cnc[nH]1` [IODOPHENPROPIT]: 8.11.
For the compound `N=C(N)SCCc1cnc[nH]1` [IMETIT], the negative logarithm of the Ki (pKi) was 8.44.
In the case of `NC(=NCc1ccc(Cl)cc1)SCCCc1cnc[nH]1` [CLOBENPROPIT], the pKi is 8.30.
With `C/N=C(\N)N/N=C(/C)c1ccc2sc3ccc(/C(C)=N\N/C(N)=N/C)cc3c2c1`, the pKi is 5.83.
In turn, `N=C(N)NCc1cccc(CNC(=N)N)n1` showed a pKi of 5.91.
On the same count and under the same terms, next, `CC(/C=C(\C)NNC(=N)N)=N/NC(=N)N`: 6.05.

The target of another assay is T1, Histamine H4 receptor. Nature of the assay: Displacement of [3H]histamine from human histamine H4 receptor expressed in […] cells at 5 uM. It counts as cell-based. The settings on record: SK-N-MC. (In general: In a radioligand displacement assay an active substance lowers the binding of a labelled ligand.)
As for `CN1CCN(c2ccccc2NC(=S)NC(=O)c2cc3ccccc3o2)CC1`, the Activity worked out at 50.3%.
Same read-out and setting: with `CN1CCN(C(=O)c2cccc(Nc3nc(-c4ccccc4)c4cc(Br)ccc4n3)c2)CC1` the figure was 23%; with `C[n+]1cccc(NC(=O)c2ccc(NC(=O)c3ccc(C(=O)Nc4ccc(NC(=N)N)cc4)cc3)cc2)c1`, 26%.
Same read-out and setting: with `NCCNC(=O)c1cc2ccccc2[nH]1` the figure was 46.9%.
In turn, `N=C(N)NN/C(=C(\O)c1ccccc1)c1ccccc1` gave an Activity of 34.7%.
Compound `CN(CCN(C)c1ccc(N)cc1)c1ccc(N)cc1` had an Activity of 34.3%.
`CCOC(=O)c1ccc(NC2=CC(=O)/C(=N\NC(=N)N)c3ccccc32)cc1` had an Activity of 92.6%.
Turning to `Cc1cc(C)nc(N/C(N)=N/CCc2c[nH]cn2)n1`, the Activity came to 95.8%.
As for `CN(C)CCCNC(=O)/C(=C\c1cn(-c2ccccc2)nc1-c1ccc(Br)cc1)NC(=O)c1ccccc1`, the Activity turned out to be 29.4%.
For `N=C(N)NN=C1C=CC(=NNC(=N)N)C=C1`, the Activity came to 44%.
On the same count and under the same terms, with `N=C(N)NC(=N)Nc1ccc(Cl)cc1C(=O)c1ccccc1` the figure was 37.1%; with `C/N=C(\N)N/N=C(/C)c1ccc2sc3ccc(/C(C)=N\N/C(N)=N/C)cc3c2c1`, 72%; with `CC(/C=C/NNC(=N)N)=N/NC(=N)N`, 33.9%.
Compound `N=C(N)NCc1cccc(CNC(=N)N)n1` gave an Activity of 67.8%.
Compound `CC(/C=C(\C)NNC(=N)N)=N/NC(=N)N` registered an Activity of 64.3%.
Same read-out and setting: with `COc1cccc(C2NCCc3[nH]cnc32)c1` (stereo unspecified) the figure was 20.9%.
